For one assay, the target named is BRD3 (His-Brd3(20-477)) (Homo sapiens (Human), UniProt Q15059). Kind of assay: TR-FRET in-vitro binding assay for BRD3. The conditions noted are these: single determination or n ≧ 2 independent determinations, read-out: Biochemical IC50 BRD3. The method, boiled down: (§1)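 Compounds were serially diluted over eight concentrations and added to wells. TR-FRET signal was then measured.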
(In general: TR-FRET usually uses a lanthanide donor and a delayed reading to cut background.)

For the next assay, the system named is K-562 cells. Kind of assay: Cell growth inhibition assay (CellTiter-Glo), K-562.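 On all read-outs here: cellular ATP measured by luminescence after 4 days of exposure, 3-fold dilution series from 10 µM, DMSO vehicle-treated cells define 100%, cell-free medium wells −100%.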 As to conditions: for GI50: Homo sapiens, K562, read-out: K-562 GI50; for K-562 TGI: K-562 cells, total growth inhibition, CellTiter-Glo. A general note: ATP-based viability assays read luminescence as a measure of living cells.
Another assay addresses BRD2 (His-Brd2(60-472)) (Homo sapiens (Human), UniProt P25440). Kind of assay: TR-FRET in-vitro binding assay for BRD2. As to conditions: single determination or n ≧ 2 independent determinations, read-out: Biochemical IC50 BRD2. The method, boiled down:
as §1

Another assay has as its system MV-4-11 cells. Kind of assay: Cell growth inhibition assay (CellTiter-Glo), MV-4-11.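 On all read-outs here: cellular ATP luminescence after 4 days, 3-fold dilution series from 10 µM top dose, vehicle (0.1% DMSO) set to 100%, cell-free medium set to −100%, day 0 corrected.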 The conditions noted are these: for GI50: Homo sapiens, MV4-11, read-out: MV-4-11 GI50; for MV-4-11 TGI: MV-4-11 cells, total growth inhibition, CellTiter-Glo.
Assay [1] has as its target CREBBP bromodomain (His-CREBBP(1081-1197)) (Homo sapiens (Human), UniProt Q92793). Description: AlphaScreen in-vitro binding assay for CREBBP. The conditions noted are these: single determination or n ≧ 2 independent determinations, read-out: Biochemical IC50 CREBBP. The method, boiled down:
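Reactions at 30 °C for 35 min, then Ni-chelate acceptor and streptavidin donor beads in HEPES pH 7.5, NaCl, Tween20, BSA, 60 min at room temperature. Eight-point compound series; IC50 by non-linear regression of percent inhibition.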
A general note: In Alpha technology, singlet oxygen from a donor bead excites a nearby acceptor bead.

The target in another assay is BRD4 (His-Brd4(44-477)) (Homo sapiens (Human), UniProt O60885). Description: TR-FRET in-vitro binding assay for BRD4. The conditions noted are these: single determination or n ≧ 2 independent determinations, read-out: Biochemical IC50 BRD4. In outline:
as §1

Another assay concerns THP-1 cells. Description: Cell growth inhibition assay (CellTiter-Glo), THP-1.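 On all read-outs here: viability read as cellular ATP luminescence after 4 days, 3-fold dilution series from 10 µM, DMSO vehicle-treated cells taken as 100%, cell-free medium wells as −100%.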 The conditions noted are these: for GI50: Homo sapiens, THP-1, read-out: THP-1 GI50; for THP-1 TGI: THP-1 cells, total growth inhibition, CellTiter-Glo.

As a reminder, the IC50 is the concentration that inhibits the measured activity by half. What is called GI50 is the concentration that inhibits growth by half.

Chain of CREBBP bromodomain (His-CREBBP(1081-1197)) (Q92793 1081-1197): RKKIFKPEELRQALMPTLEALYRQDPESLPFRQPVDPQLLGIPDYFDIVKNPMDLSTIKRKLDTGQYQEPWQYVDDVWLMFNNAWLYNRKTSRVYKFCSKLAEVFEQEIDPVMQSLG
Chain of BRD2 (His-Brd2(60-472)) (P25440 60-472): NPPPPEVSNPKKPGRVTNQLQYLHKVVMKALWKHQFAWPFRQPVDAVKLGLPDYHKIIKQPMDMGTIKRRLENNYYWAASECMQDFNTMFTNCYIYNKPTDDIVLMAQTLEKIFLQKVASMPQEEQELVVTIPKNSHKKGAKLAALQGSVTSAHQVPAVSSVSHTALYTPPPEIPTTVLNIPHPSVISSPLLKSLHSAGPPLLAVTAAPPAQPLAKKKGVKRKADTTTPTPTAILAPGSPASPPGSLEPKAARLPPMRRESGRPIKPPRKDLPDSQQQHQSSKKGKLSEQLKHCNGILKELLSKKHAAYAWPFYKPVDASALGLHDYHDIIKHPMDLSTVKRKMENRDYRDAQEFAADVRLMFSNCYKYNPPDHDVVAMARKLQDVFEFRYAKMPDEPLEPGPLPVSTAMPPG
Chain of BRD3 (His-Brd3(20-477)) (Q15059 20-477): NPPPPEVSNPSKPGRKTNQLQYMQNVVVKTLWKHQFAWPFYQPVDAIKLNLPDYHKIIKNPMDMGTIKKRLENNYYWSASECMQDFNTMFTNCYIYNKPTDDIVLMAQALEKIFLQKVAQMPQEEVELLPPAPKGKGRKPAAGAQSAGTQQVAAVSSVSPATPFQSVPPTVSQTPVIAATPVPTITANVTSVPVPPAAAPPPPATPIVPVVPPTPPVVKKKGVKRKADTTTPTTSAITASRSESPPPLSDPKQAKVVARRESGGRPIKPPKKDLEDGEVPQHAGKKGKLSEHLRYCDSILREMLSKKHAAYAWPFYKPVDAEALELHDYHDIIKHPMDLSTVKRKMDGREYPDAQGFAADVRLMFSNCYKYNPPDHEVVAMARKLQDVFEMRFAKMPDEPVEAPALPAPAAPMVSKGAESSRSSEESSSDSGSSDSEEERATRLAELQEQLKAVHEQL

As to `COc1cc(N2C(=O)c3nc(C4CCOCC4)n(C(C)C)c3[C@H]2c2ccc(Cl)cc2)cc2c1nnn2C` [Example 108], the IC50 at BRD3 (His-Brd3(20-477)) came to 74 nM; at BRD2 (His-Brd2(60-472)), 180 nM; in assay [1] it was 9750 nM; at BRD4 (His-Brd4(44-477)), 61 nM. Besides, the GI50 in the assay on K-562 cells was determined as 132 nM; in the assay on MV-4-11 cells it was 20.7 nM; in the assay on THP-1 cells it was 47.4 nM. For the same compound, in the assay on K-562 cells, the “K-562 TGI” value is above 10000 nM. Besides, in the assay on MV-4-11 cells, the “MV-4-11 TGI” value was 42.95 nM. In addition, the “THP-1 TGI” value in the assay on THP-1 cells came to 113 nM.

Consider `Cc1cc(N2C(=O)c3nc(C)n(C(C)C)c3[C@H]2c2ccc(Cl)cc2)cc2c1nnn2C` [Example 109, (R)-6-(4-chlorophenyl)-5-(3,7-dimethyl-3H-benzo[d][1,2,3]triazol-5-yl)-1-isopropyl-2-methyl-5,6-dihydropyrrolo[3,4-d]imidazol-4(1H)-one], for which the IC50 on BRD3 (His-Brd3(20-477)) worked out at 19 nM; at BRD2 (His-Brd2(60-472)), 38 nM; in assay [1], 4350 nM; on BRD4 (His-Brd4(44-477)) it was 22 nM. For the same compound, the GI50 in the assay with K-562 cells amounted to 52 nM; in the assay with MV-4-11 cells it was 6.29 nM; with THP-1 cells, 11.9 nM. For the same compound, the “K-562 TGI” value with K-562 cells was above 10000 nM. The “MV-4-11 TGI” value in the assay on MV-4-11 cells is 15.35 nM. Also, the “THP-1 TGI” value with THP-1 cells was found to be 35.8 nM.

For `Cc1cc(N2C(=O)c3nc(C)n(C(C)C)c3[C@H]2c2ccc(Cl)cc2)nn2c(C)nnc12` [Example 110, (R)-6-(4-chlorophenyl)-5-(3,8-dimethyl-[1,2,4]triazolo[4,3-b]pyridazin-6-yl)-1-isopropyl-2-methyl-5,6-dihydropyrrolo[3,4-d]imidazol-4(1H)-one], the IC50 on BRD3 (His-Brd3(20-477)) was below 11 nM; at BRD2 (His-Brd2(60-472)), 12 nM; in assay [1] it was 35900 nM; on BRD4 (His-Brd4(44-477)) it was below 11 nM. Further, the GI50 came out at 30.6 nM with K-562 cells, 4.48 nM in the assay on MV-4-11 cells and 6.94 nM in the assay on THP-1 cells. In the assay with K-562 cells, the “K-562 TGI” value is above 10000 nM. For the same compound, the “MV-4-11 TGI” value in the assay with MV-4-11 cells was 11 nM. Also, the “THP-1 TGI” value in the assay on THP-1 cells turned out to be 21.6 nM.

For `COc1ncccc1-c1nc2c(n1C(C)C)[C@@H](c1ccc(Cl)cc1)N(c1cc(OC)c3nnn(C)c3c1)C2=O` [Example 111], the IC50 stood at 20 nM on BRD3 (His-Brd3(20-477)), 33 nM on BRD2 (His-Brd2(60-472)), 8900 nM in assay [1] and 14 nM on BRD4 (His-Brd4(44-477)). Further, the GI50 with K-562 cells turned out to be 90.1 nM; in the assay with MV-4-11 cells, 18.6 nM; in the assay with THP-1 cells, 40.2 nM. Besides, in the assay on K-562 cells, the “K-562 TGI” value is above 10000 nM. For the same compound, in the assay on MV-4-11 cells, the “MV-4-11 TGI” value came out at 44.65 nM. In the assay with THP-1 cells, the “THP-1 TGI” value was found to be 92.1 nM.

With `COc1ccc(-c2nc3c(n2C(C)C)C(c2ccc(Cl)cc2)N(c2cc(OC)c4nnn(C)c4c2)C3=O)cn1` (stereo not drawn) [Example 113, 6-(4-chlorophenyl)-1-isopropyl-5-(4-methoxy-1-methyl-1H-benzo[d][1,2,3]triazol-6-yl)-2-(6-methoxypyridin-3-yl)-5,6-dihydropyrrolo[3,4-d]imidazol-4(1H)-one], the IC50 is 102 nM at BRD3 (His-Brd3(20-477)), 100 nM on BRD2 (His-Brd2(60-472)), above 37000 nM in assay [1] and 200 nM on BRD4 (His-Brd4(44-477)). Besides, the GI50 in the assay with K-562 cells was 358 nM; in the assay on MV-4-11 cells, 125 nM; in the assay with THP-1 cells, 171 nM. Also, the “K-562 TGI” value in the assay on K-562 cells is above 10000 nM. Further, the “MV-4-11 TGI” value in the assay with MV-4-11 cells worked out at 186 nM. In addition, the “THP-1 TGI” value in the assay with THP-1 cells is 359.5 nM.

In the case of `COc1ccc(-c2nc3c(n2C(C)C)[C@@H](c2ccc(Cl)cc2)N(c2cc(OC)c4nnn(C)c4c2)C3=O)cn1` [Example 114, (R)-6-(4-chlorophenyl)-1-isopropyl-5-(4-methoxy-1-methyl-1H-benzo[d][1,2,3]triazol-6-yl)-2-(6-methoxypyridin-3-yl)-5,6-dihydropyrrolo[3,4-d]imidazol-4(1H)-one], the IC50 at BRD3 (His-Brd3(20-477)) is 100 nM; at BRD2 (His-Brd2(60-472)) it was 87 nM; in assay [1] it was 12900 nM; on BRD4 (His-Brd4(44-477)) it was 38 nM. The GI50 was 268 nM in the assay with K-562 cells, 77.7 nM in the assay on MV-4-11 cells and 118 nM with THP-1 cells. In addition, in the assay on K-562 cells, the “K-562 TGI” value was above 10000 nM. In the assay on MV-4-11 cells, the “MV-4-11 TGI” value was determined as 158.5 nM. In the assay with THP-1 cells, the “THP-1 TGI” value was determined as 300.5 nM.

Values taken from patent US9890166B2, “Imidazopyrrolidine derivatives and their use in the treatment of disease” (NOVARTIS AG, priority 2013, dated 2018).
